Laboratory results taken from patent US9795608B2, “Protein kinase inhibitors” (PHARMASCIENCE, INC., priority 2012, dated 2017).

Assays:
[1] = molecular target: histidine tagged recombinant human full-length Bruton Agammaglobulinemia Tyrosine Kinase (Btk) (Homo sapiens (Human), UniProt Q06187); assay: Btk Kinase Inhibition Assay (fluorescence polarization, KinEASE FP Fluorescein Green); assay type: biochemical; details: 10 μM ATP, 250 μM substrate, 60 minutes room temperature; Ki from IC50 by Cheng-Prusoff
Sequence of histidine tagged recombinant human full-length Bruton Agammaglobulinemia Tyrosine Kinase (Btk) (Q06187 whole entry): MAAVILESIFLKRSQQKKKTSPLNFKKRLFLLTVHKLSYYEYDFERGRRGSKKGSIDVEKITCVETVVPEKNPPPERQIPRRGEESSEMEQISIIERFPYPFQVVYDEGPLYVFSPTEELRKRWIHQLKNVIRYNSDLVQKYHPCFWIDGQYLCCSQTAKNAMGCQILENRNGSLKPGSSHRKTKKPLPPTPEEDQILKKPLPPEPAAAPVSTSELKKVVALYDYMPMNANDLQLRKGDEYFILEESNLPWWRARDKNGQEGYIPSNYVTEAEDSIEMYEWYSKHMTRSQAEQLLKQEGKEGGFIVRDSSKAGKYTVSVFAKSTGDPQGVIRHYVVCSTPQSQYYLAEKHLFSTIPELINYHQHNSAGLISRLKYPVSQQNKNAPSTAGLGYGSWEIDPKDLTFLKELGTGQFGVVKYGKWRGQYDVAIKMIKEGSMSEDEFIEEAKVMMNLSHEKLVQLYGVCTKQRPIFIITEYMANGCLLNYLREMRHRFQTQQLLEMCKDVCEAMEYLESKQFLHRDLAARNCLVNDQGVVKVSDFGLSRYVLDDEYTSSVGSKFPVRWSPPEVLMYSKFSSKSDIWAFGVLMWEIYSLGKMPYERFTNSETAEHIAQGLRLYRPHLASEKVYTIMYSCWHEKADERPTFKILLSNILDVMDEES
Method: Kinase Binding Btk Kinase Inhibition Assay
Fluorescence polarization-based kinase assays were performed in 384 well-plate format using histidine tagged recombinant human full-length Bruton Agammaglobulinemia Tyrosine Kinase (Btk) and a modified protocol of the KinEASE™ FP Fluorescein Green Assay supplied from Millipore. Kinase reaction were performed at room temperature for 60 minutes in presence of 250 μM substrate, 10 μM ATP and variable test article concentrations. The reaction was stopped with EDTA/kinease detection reagents and the polarization measured on a Tecan 500 instrument. From the dose-response curve obtained, the IC50 was calculated using Graph Pad Prisms® using a non linear fit curve. The Km for ATP on each enzyme was experimentally determined and the Ki values calculated using the Cheng-Prusoff equation (see: Cheng Y, Prusoff W H. (1973) Relationship between the inhibition constant (K1) and the concentration of inhibitor which causes 50 percent inhibition (I50) of an enzymatic reaction”. Biochem Pharmacol 22 (23): 3099-108).

Splenocytes = assay: Splenic Cell Proliferation Assay (anti-IgM stimulated B cell proliferation, Cell Titer-Glo); assay type: cell-based; details: Splenocyte; CD1 mouse splenocytes, 2.5 ug/ml anti-IgM F(ab')2, 72 h; read-out: EC50 (nM), Inhibition of splenic cell proliferation
Method: Splenic Cell Proliferation Assay
Splenocytes were obtained from 6 week old male CD1 mice (Charles River Laboratories Inc.). Mouse spleens were manually disrupted in PBS and filtered using a 70 um cell strainer followed by ammonium chloride red blood cell lysis. Cells were washed, resuspended in Splenocyte Medium (HyClone RPMI supplemented with 10% heat-inactivated FBS, 0.5× non-essential amino acids, 10 mM HEPES, 50 uM beta mercaptoethanol) and incubated at 37° C., 5% CO2 for 2 h to remove adherent cells. Suspension cells were seeded in 96 well plates at 50,000 cells per well and incubated at 37° C., 5% CO2 for 1 h. Splenocytes were pre-treated in triplicate with 10,000 nM curves of Formula 1 compounds for 1 h, followed by stimulation of B cell proliferation with 2.5 ug/ml anti-IgM F(ab′)2 (Jackson ImmunoResearch) for 72 h. Cell proliferation was measured by Cell Titer-Glo Luminescent Assay (Promega). EC50 values (50% proliferation in the presence of compound as compared to vehicle treated controls) were calculated from dose response compound curves using GraphPad Prism Software.

Balb/c mice = assay: Mouse Arthus; assay type: in vivo; details: delivered orally at 30 mg/kg, female Balb/c mice
Method: Mouse Arthus studies were conducted as reported in Braselmann S, Taylor V, Zhao H, Wang S, Sylvain C, Baluom M, Qu K, Herlaar E, Lau A, Young C, Wong B R, Lovell S, Sun T, Park G, Argade A, Jurcevic S, Pine P, Singh R, Grossbard E B, Payan D G, Masuda E S: R406 an orally available spleen tyrosine kinase inhibitor blocks fc receptor signaling and reduces immune-complex mediated inflammation. J Pharmacol Exp Ther, 2006, 319:998-1008.
In summary, female Balb/c mice (6-7 weeks on arrival) were habituated to the animal facility for at least 4 days. On the day of the experiment, animals were pre-treated (t=minus 1 h) with compound or vehicle alone by gavage (PO). At t=0, animals were injected intravenously (IV; 0.1 mL/mouse) with saline containing chicken ovalbumin and Evan's blue (10 mg/mL of each). Ten minutes later (t=10 min), animals were anesthesized with isoflurane, the dorsal surface was shaved and rabbit anti-chicken ovalbumin antibody was then injected intradermally at one site on the right side of the animal (25 μg in 30 μL). […]
The animals were then returned to their home cage and skin punches (8 mm) were collected from each injection site four hours later. […] The amount of Evan's blue in the formamide solution was then assessed by spectrophotometry (630 nm) as a measure of serum extravasation into the dermis.

Row | SMILES | Ki [1] [nM] | EC50 (Splenocytes) [nM] | efficacy in mouse Arthus (Evan's blue serum extravasation into the dermis) (Balb/c mice)
1 | CC(C)c1nn(-c2ccc(Oc3cc(F)cc(OCc4ccccc4)c3)cc2)c2c(N)ncnc12 [Compound 12] | < 100 | < 100 | –
2 | Cc1ncc(COc2cc(F)cc(Oc3ccc(-n4nc(C5CCCC5)c5ncnc(N)c54)cc3)c2)cn1 [Compound 8] | < 100 | < 100 | –
3 | Cc1ncc(COc2cc(F)cc(Oc3ccc(-n4nc(C5CCOCC5)c5ncnc(N)c54)cc3)c2)cn1 [Compound 15] | < 100 | – | –
4 | Cc1ncc(COc2cc(F)cc(Oc3ccc(-n4nc(C5CCCC5)c5ncnc(N)c54)cc3)c2)s1 [Compound 7] | < 100 | < 100 | –
5 | Cc1ncc(COc2cccc(Oc3ccc(-n4nc(C5CCCC5)c5ncnc(N)c54)cc3)c2)s1 [Compound 2] | < 100 | < 100 | –
6 | Cc1ncc(COc2cc(F)cc(Oc3ccc(-n4nc(C(C)C)c5ncnc(N)c54)cc3)c2)cn1 [Compound 10] | < 100 | < 100 | demonstrated efficacy
7 | Nc1ncnc2c(C3CCOCC3)nn(-c3ccc(Oc4cc(F)cc(OCc5ccccc5)c4)cc3)c12 [Compound 13] | < 100 | < 100 | –
8 | Nc1ncnc2c(C3CCCC3)nn(-c3ccc(Oc4cccc(OCc5cncs5)c4)cc3)c12 [Compound 1] | < 100 | < 100 | –
9 | Cc1ncc(COc2cc(F)cc(Oc3ccc(-n4nc(C5CCOCC5)c5ncnc(N)c54)cc3)c2)o1 [Compound 5] | < 100 | < 100 | –
10 | Cc1ccc(COc2cc(F)cc(Oc3ccc(-n4nc(C(C)C)c5ncnc(N)c54)cc3)c2)cn1 [Compound 11] | < 100 | < 100 | –
11 | Cn1cncc1COc1cc(F)cc(Oc2ccc(-n3nc(C4CCOCC4)c4ncnc(N)c43)cc2)c1 [Compound 4] | < 100 | < 100 | –
12 | Cc1ncc(COc2cc(F)cc(Oc3ccc(-n4nc(C5CCOCC5)c5ncnc(N)c54)cc3)c2)s1 [Compound 3] | < 100 | < 100 | –
13 | Cc1ccc(COc2cc(F)cc(Oc3ccc(-n4nc(C5CCCC5)c5ncnc(N)c54)cc3)c2)cn1 [Compound 6] | < 100 | < 100 | –
14 | Cc1ncc(COc2cc(F)cc(Oc3ccc(-n4nc(C(C)C)c5ncnc(N)c54)cc3)c2)s1 [Compound 9] | < 100 | < 100 | demonstrated efficacy
15 | Cc1ccc(COc2cc(F)cc(Oc3ccc(-n4nc(C5CCOCC5)c5ncnc(N)c54)cc3)c2)cn1 [Compound 14] | < 100 | < 100 | –
